Measured values reported in the NIST ThermoML archive (doi:10.1016/j.jct.2016.11.009).

Test: xn = mol fraction of the nth substance listed
Conditions: Fluid (supercritical or subcritical phases), Buoyancy - hydrostatic balance with magnetic suspension - one sinker

C [methane] + O=C=O
Conditions	mass density [kg/m3]
303.29 K, 11998 kPa, x2 = 0.8988	626.792
303.29 K, 15006 kPa, x2 = 0.3997	237.974
305.01 K, 18003 kPa, x2 = 0.8988	732.397
305.04 K, 7997 kPa, x2 = 0.8988	244.829
305.06 K, 9978 kPa, x2 = 0.8988	474.418
305.08 K, 11001 kPa, x2 = 0.3997	159.477
305.09 K, 12002 kPa, x2 = 0.0998	107.694
305.1 K, 4001 kPa, x2 = 0.3997	47.504
305.1 K, 17995 kPa, x2 = 0.6015	408.107
305.11 K, 3997 kPa, x2 = 0.7985	72.035
305.11 K, 5997 kPa, x2 = 0.0998	49.434
305.11 K, 6003 kPa, x2 = 0.7985	122.855
305.12 K, 3998 kPa, x2 = 0.8988	79.325
305.12 K, 5006 kPa, x2 = 0.7985	95.778
305.13 K, 6992 kPa, x2 = 0.0998	58.605
305.13 K, 6994 kPa, x2 = 0.8988	182.804
305.13 K, 9002 kPa, x2 = 0.0998	77.799
305.13 K, 11012 kPa, x2 = 0.6015	223.4
305.13 K, 14994 kPa, x2 = 0.3997	233.75
305.14 K, 5001 kPa, x2 = 0.6015	76.729
305.14 K, 14994 kPa, x2 = 0.7985	546.063
305.15 K, 3979 kPa, x2 = 0.6015	58.587
305.15 K, 6000 kPa, x2 = 0.6015	96.024
305.15 K, 7998 kPa, x2 = 0.0998	68.122
305.15 K, 9004 kPa, x2 = 0.6015	165.984
305.15 K, 11001 kPa, x2 = 0.2017	116.026
305.15 K, 11998 kPa, x2 = 0.2017	128.322
305.15 K, 12006 kPa, x2 = 0.3997	178.104
305.16 K, 3003 kPa, x2 = 0.0998	23.496
305.16 K, 4003 kPa, x2 = 0.0998	31.879
305.16 K, 8002 kPa, x2 = 0.2017	80.173
305.16 K, 8998 kPa, x2 = 0.3997	123.489
305.16 K, 10996 kPa, x2 = 0.8988	555.932
305.16 K, 14996 kPa, x2 = 0.0998	137.438
305.16 K, 15000 kPa, x2 = 0.6015	340.932
305.16 K, 18000 kPa, x2 = 0.2017	199.543
305.17 K, 6999 kPa, x2 = 0.6015	117.142
305.17 K, 7000 kPa, x2 = 0.7985	154.794
305.17 K, 10003 kPa, x2 = 0.0998	87.669
305.17 K, 10999 kPa, x2 = 0.0998	97.609
305.17 K, 18001 kPa, x2 = 0.0998	165.624
305.18 K, 4001 kPa, x2 = 0.2017	37.03
305.18 K, 4996 kPa, x2 = 0.3997	60.999
305.18 K, 5001 kPa, x2 = 0.2017	47.235
305.18 K, 6000 kPa, x2 = 0.3997	75.426
305.18 K, 7002 kPa, x2 = 0.3997	90.651
305.18 K, 8000 kPa, x2 = 0.6015	140.462
305.18 K, 9997 kPa, x2 = 0.3997	141.056
305.18 K, 11999 kPa, x2 = 0.7985	429.815
305.18 K, 14999 kPa, x2 = 0.2017	165.099
305.18 K, 18002 kPa, x2 = 0.7985	608.035
305.19 K, 7000 kPa, x2 = 0.2017	68.786
305.19 K, 9001 kPa, x2 = 0.2017	91.841
305.19 K, 9001 kPa, x2 = 0.7985	243.07
305.19 K, 12005 kPa, x2 = 0.6015	253.791
305.2 K, 5004 kPa, x2 = 0.8988	106.835
305.2 K, 10000 kPa, x2 = 0.2017	103.792
305.2 K, 11001 kPa, x2 = 0.7985	369.844
305.2 K, 11998 kPa, x2 = 0.8988	604.408
305.21 K, 8996 kPa, x2 = 0.8988	345.688
305.21 K, 15000 kPa, x2 = 0.8988	683.999
305.22 K, 6000 kPa, x2 = 0.2017	57.81
305.22 K, 8006 kPa, x2 = 0.3997	106.718
305.22 K, 10006 kPa, x2 = 0.6015	193.541
305.23 K, 5002 kPa, x2 = 0.0998	40.525
305.23 K, 6002 kPa, x2 = 0.8988	139.912
305.23 K, 10000 kPa, x2 = 0.7985	303.258
305.24 K, 8000 kPa, x2 = 0.7985	193.79
